{
  "source": "patent US20090264648A1",
  "about": "“SYNTHESIS OF PYRAZOLES” (WYETH, priority 2008, published 2009)",
  "key": {"[1]": {"test": "Hygroscopicity noted on isolation of the hydrochloride salt", "assay_type": "physicochemical", "conditions": "salt precipitated from DCM with HCl in Et2O", "method": "5-(4-acetyl-[1,4]diazepan-1-yl)-pentanoic acid [5-(4-methoxy-phenyl)-1H-pyrazol-3-yl]-amide (1.05 g, 2.54 mmol) was dissolved in a minimum amount of DCM (5 mL) and cooled to 0° C. HCl (2.0 M in Et20, 1.4 mL, 2.89 mmol) was added and the mixture stirred at rt until precipitation of the salt was complete (about 10 min.). The solid was filtered, washed with Et2O several times, and dried in a dessicator to yield 1.09 g of the hydrochloride salt (2.42 mmol, 95% yield). […] MS (ES+): 414.26 (M+H)^+."}, "[2]": {"test": "Hygroscopicity test / Dynamic Vapor Sorption (DVS) of hydrochloride salt crystal forms", "assay_type": "physicochemical", "conditions": "for Water absorbed eventually: 90% RH", "method": "Evidence of a hydrochloride hydrate was not observed after the hygroscopicity test.\nDynamic Vapor Sorption (DVS) was done at 25-26° C."}},
  "note": "“Also recorded” adds a separate entry of the source. Where a name gives a salt, the structure may show the parent alone. Read-outs that look alike come from different tables or passages of the source.",
  "data": [
    {"smiles": "COc1ccc(-c2cc(NC(=O)CCCCN3CCCN(C(C)=O)CC3)n[nH]2)cc1.Cl", "note": "[Compound I, 5-(4-acetyl-1,4-diazepan-1-yl)-N-(5-(4-methoxyphenyl)-1H-pyrazol-3-yl)pentanamide hydrogen chloride]", "values": [
      {"measurement": "melting point", "value": "132 to 133", "unit": "°C"},
      {"measurement": "Hygroscopicity of the sample", "setting": "[1]", "value": "extreme hygroscopicity"}
    ]},
    {"smiles": "COc1ccc(-c2cc(NC(=O)CCCCN3CCCN(C(C)=O)CC3)[nH]n2)cc1", "note": "[Form III, 5-(4-Acetyl-[1,4]diazepan-1-yl)-pentanoic acid [5-(4-methoxy-phenyl)-2H-pyrazol-3-yl]-amide]", "values": [
      {"measurement": "Hygroscopicity (in words), Crystal Form Table", "setting": "[2]; listed as Crystal Form III", "value": "Hygroscopic"}
    ]},
    {"smiles": "COc1ccc(-c2cc(NC(=O)CCCCN3CCCN(C(C)=O)CC3)[nH]n2)cc1", "note": "[Crystal Form V, 5-(4-Acetyl-[1,4]diazepan-1-yl)-pentanoic acid [5-(4-methoxy-phenyl)-2H-pyrazol-3-yl]-amide]", "values": [
      {"measurement": "Hygroscopicity (in words), Crystal Form Table", "setting": "[2]", "value": "Hygroscopic"},
      {"measurement": "Water at RH 50%", "setting": "[2]", "value": 7, "unit": "%"}
    ]},
    {"smiles": "COc1ccc(-c2cc(NC(=O)CCCCN3CCCN(C(C)=O)CC3)[nH]n2)cc1", "note": "[Form II, 5-(4-acetyl-1,4-diazepan-1-yl)-N-(5-(4-methoxyphenyl)-1H-pyrazol-3-yl)pentanamide hydrochloric salt Form II]", "values": [
      {"measurement": "Hygroscopicity (in words)", "setting": "[2]", "value": "non-hygroscopic"},
      {"measurement": "Water absorbed eventually", "setting": "[2]; DVS at 25-26° C.", "value": "up to 7%"},
      {"measurement": "Relative humidity (RH) at which the form picks up moisture", "setting": "[2]; DVS at 25-26° C.", "value": "about 20%"},
      {"measurement": "Water held at low RH", "setting": "[2]; RH 0%, DVS at 25-26° C.", "value": 2, "unit": "%"},
      {"measurement": "Water at RH 50%", "setting": "[2]; listed as Crystal Form II", "value": "hygroscopic (5%"},
      {"measurement": "Hygroscopicity (in words), Crystal Form Table", "setting": "[2]; listed as Crystal Form II", "value": "Somewhat"}
    ]},
    {"smiles": "COc1ccc(-c2cc(NC(=O)CCCCN3CCCN(C(C)=O)CC3)[nH]n2)cc1", "note": "(as salt: hydrochloric acid salt) [5-(4-Acetyl-[1,4]diazepan-1-yl)-pentanoic acid [5-(4-methoxy-phenyl)-2H-pyrazol-3-yl]-amide]", "values": [
      {"measurement": "melting point", "value": 185, "unit": "°C"}
    ]},
    {"smiles": "COc1ccc(-c2cc(NC(=O)CCCCN3CCCN(C(C)=O)CC3)[nH]n2)cc1", "note": "[Form I, 5-(4-acetyl-1,4-diazepan-1-yl)-N-(5-(4-methoxyphenyl)-1H-pyrazol-3-yl)pentanamide hydrochloric salt Form I]", "values": [
      {"measurement": "Behaviour of absorbed water on decreasing RH", "setting": "[2]", "value": "loses it without significant hysteresis on decreasing RH; also recorded: loses the water as RH decreases"},
      {"measurement": "Evidence of a hydrochloride hydrate after the hygroscopicity test", "setting": "[2]", "value": "not observed"},
      {"measurement": "Hygroscopicity (in words)", "setting": "[2]", "value": "relatively non-hygroscopic"},
      {"measurement": "Moisture gained", "setting": "[2]; 70-100% RH", "value": "at least 2%"},
      {"measurement": "Water absorbed eventually", "setting": "[2]; DVS at 25-26° C.", "value": "up to 2%"},
      {"measurement": "Relative humidity (RH) at which the form picks up moisture", "setting": "[2]; DVS at 25-26° C.", "value": "about 50%"},
      {"measurement": "Moisture gained when equilibrated", "setting": "[2]; RH less than or equal to 70%", "value": "about 0.5%"},
      {"measurement": "Hygroscopicity (in words), Crystal Form Table", "setting": "[2]; listed as Crystal Form I", "value": "Non-hygroscopic"}
    ]}
  ]
}
